Test results reported in publication PMC10178848, “Modulating fast skeletal muscle contraction protects skeletal muscle in animal models of Duchenne muscular dystrophy” (The Journal of Clinical Investigation, 2023).

Columns and labels:
[1] = test system: dystrophic golden retriever (GRMD) dogs; experiment: Plasma CK activity in GRMD dogs; type: in vivo, dog; details: 7-month-old GRMD, 14 days oral gavage
Experimental: Plasma from mice and dogs were analyzed for CK activity using standard protocols (Pointe Scientific, Thermo Fisher Scientific).
Studies were performed in two phases. In the first phase, GRMD (n = 4, female, 7 months old) were dosed PO daily with vehicle for 2 weeks, followed by a suspension of EDG-5506 (3 mg/kg daily for 2 days, then 1 mg/kg daily for 2 weeks) and then with vehicle for 2 weeks. Blood was drawn at regular intervals (2–3 draws during the vehicle baseline, 5–8 draws during the dosing period, and 2 draws during the vehicle washout). In a separate dosing period, the same 4 dogs (10 months old) were administered vehicle for 14 days with regular blood draws (6–9 for each dog across the 14-day period). CK activity (Pointe Scientific, Thermo Fisher Scientific) was measured from plasma. In the second phase, the same 4 dogs (15 months old) were fitted with a collar-bound activity monitor (Fitbark 2, Fitbark Inc.) as described previously ([42]), and baseline activity was recorded for 27 days before daily oral gavage with vehicle for 22 days. Three dogs were then dosed in a similar pattern to phase 1 with EDG-5506 (2 mg/kg for 4 days and then 2 mg/kg every other day for 7 days). The fourth dog was dosed with vehicle over the same period. […] Average daily activity (“Fitbark points”) and time performing various activities (play, rest, active) were recorded.

90 kinase proteins = experiment: KINOMEscan off-target binding panel (whole panel); details: 20 μM
WT or mdx mice = experiment: Forelimb grip strength; type: in vivo, mouse; details: single doses up to 10 mg/kg, 4 hours after oral administration
Experimental: Prior to in vivo assessments, mice were dosed PO after a 2-hour fast with 10 mL/Kg suspensions. Grip strength and rotarod assessments were performed masked, 4 hours after dosing using published protocols ([66], [67]). Grip strength was performed with a Columbus Instruments Rodent Force Meter. Forepaw strength represented the average of 5 trials with 30-second rest periods, normalized by BW. Rotarod endurance was performed with a Columbus Instruments RotaMax. Mice were placed on the device drum at 1 rpm, which accelerated 1 rpm every 3 seconds to 12 rpm and a maximal time of 500 seconds. This was repeated 3 times with a 3-minute rest and total time reported. Voluntary wheel running performance was assessed with a customized system. Timestamped RPMs were measured 24 hours per day by infrared sensors, and a custom software calculated distance. Whole-body EBD was visualized after intravenous administration ([35]). EBD in PBS at 10 mg/mL was sterile filtered, and 50 μL/10 g BW was injected via tail vein. After 24 hours, animals were sacrificed, skin was removed and fixed in 4% formalin for 24 hours, and photographed using a Leica/Lumix camera.

ADCK3 = target: T1, ADCK3 (Homo sapiens, UniProt Q8NI60); experiment: KINOMEscan scanEDGE; type: binding; details: 20 uM
T1 construct: purchased Eurofins DiscoverX (KINOMEscan; SAFETYscan E/IC50 ELECT)
T1 sequence (Q8NI60 163-647): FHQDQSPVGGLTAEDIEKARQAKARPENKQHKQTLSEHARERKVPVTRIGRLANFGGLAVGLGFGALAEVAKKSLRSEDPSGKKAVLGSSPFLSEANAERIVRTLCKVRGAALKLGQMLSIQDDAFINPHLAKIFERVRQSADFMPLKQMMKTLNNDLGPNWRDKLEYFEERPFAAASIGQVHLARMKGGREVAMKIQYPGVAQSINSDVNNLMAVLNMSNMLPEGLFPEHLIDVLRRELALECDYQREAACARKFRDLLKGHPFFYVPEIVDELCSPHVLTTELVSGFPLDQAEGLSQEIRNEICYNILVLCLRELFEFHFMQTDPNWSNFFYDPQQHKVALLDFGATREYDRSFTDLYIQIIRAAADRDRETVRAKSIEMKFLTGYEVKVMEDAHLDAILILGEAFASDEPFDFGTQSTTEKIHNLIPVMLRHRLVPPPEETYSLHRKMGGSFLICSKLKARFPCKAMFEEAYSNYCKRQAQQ

CDK3 = target: T2, CDK3 (Homo sapiens, UniProt Q00526); experiment: KINOMEscan scanEDGE; type: binding; details: 20 uM
T2 construct: purchased Eurofins DiscoverX (KINOMEscan; SAFETYscan E/IC50 ELECT)
T2 sequence (Q00526 whole entry): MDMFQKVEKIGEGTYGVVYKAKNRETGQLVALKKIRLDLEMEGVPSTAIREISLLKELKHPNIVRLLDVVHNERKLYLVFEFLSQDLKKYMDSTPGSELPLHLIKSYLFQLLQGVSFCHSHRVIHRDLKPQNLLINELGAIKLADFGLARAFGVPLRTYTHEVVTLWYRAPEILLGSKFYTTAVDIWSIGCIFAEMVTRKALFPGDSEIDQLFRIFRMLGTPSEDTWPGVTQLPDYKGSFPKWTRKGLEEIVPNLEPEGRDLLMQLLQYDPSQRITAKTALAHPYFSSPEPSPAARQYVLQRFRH

MAP3K4 = target: T3, MAP3K4 (Homo sapiens, UniProt Q9Y6R4); experiment: KINOMEscan scanEDGE; type: binding; details: 20 uM
T3 construct: purchased Eurofins DiscoverX (KINOMEscan; SAFETYscan E/IC50 ELECT)

PIM2 = target: T4, PIM2 (Homo sapiens, UniProt Q9P1W9); experiment: KINOMEscan scanEDGE; type: binding; details: 20 uM
T4 construct: purchased Eurofins DiscoverX (KINOMEscan; SAFETYscan E/IC50 ELECT)
T4 sequence (Q9P1W9 whole entry): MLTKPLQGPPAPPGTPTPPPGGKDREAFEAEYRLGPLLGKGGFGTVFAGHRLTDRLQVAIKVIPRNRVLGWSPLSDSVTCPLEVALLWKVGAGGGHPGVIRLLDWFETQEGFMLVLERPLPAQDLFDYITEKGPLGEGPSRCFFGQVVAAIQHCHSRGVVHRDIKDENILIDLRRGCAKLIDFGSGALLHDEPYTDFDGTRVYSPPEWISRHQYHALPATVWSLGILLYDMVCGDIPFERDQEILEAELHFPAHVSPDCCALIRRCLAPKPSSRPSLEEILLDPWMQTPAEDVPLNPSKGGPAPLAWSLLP

EGFR = target: T5, EGFR (Homo sapiens, UniProt P00533); experiment: KINOMEscan scanEDGE; type: binding; details: 20 uM
T5 construct: purchased Eurofins DiscoverX (KINOMEscan; SAFETYscan E/IC50 ELECT)
T5 sequence (P00533 25-1210): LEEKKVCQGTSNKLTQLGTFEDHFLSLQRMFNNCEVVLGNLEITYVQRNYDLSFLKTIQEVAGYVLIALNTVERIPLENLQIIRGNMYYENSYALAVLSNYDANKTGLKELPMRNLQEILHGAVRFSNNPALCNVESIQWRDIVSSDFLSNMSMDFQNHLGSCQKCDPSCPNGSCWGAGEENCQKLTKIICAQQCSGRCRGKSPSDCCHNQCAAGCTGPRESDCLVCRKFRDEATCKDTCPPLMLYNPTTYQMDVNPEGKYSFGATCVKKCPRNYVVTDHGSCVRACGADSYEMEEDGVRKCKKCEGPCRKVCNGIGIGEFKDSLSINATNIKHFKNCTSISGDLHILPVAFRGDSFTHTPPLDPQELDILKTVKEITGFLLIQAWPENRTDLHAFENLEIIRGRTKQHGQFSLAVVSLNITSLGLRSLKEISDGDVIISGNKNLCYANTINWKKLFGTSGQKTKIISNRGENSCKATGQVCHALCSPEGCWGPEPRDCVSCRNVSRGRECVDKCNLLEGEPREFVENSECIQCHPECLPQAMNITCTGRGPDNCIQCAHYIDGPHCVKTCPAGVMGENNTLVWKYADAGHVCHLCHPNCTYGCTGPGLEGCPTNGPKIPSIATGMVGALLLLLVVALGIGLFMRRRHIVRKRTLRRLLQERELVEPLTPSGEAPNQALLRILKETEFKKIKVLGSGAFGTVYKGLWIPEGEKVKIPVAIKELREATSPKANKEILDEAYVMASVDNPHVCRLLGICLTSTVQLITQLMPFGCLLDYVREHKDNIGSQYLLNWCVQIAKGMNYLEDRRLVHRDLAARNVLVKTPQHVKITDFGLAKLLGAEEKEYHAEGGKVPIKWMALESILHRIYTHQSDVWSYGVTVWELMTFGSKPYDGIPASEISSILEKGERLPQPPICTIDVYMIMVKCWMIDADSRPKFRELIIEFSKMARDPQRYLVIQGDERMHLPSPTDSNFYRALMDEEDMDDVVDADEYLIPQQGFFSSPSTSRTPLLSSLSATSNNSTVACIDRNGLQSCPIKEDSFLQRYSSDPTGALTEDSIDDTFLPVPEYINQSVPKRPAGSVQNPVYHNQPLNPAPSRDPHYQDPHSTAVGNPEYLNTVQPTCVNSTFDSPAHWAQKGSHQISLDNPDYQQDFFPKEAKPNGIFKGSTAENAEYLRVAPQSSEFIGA

AXL = target: T6, AXL (Homo sapiens, UniProt P30530); experiment: KINOMEscan scanEDGE; type: binding; details: 20 uM
T6 construct: purchased Eurofins DiscoverX (KINOMEscan; SAFETYscan E/IC50 ELECT)
T6 sequence (P30530 26-894): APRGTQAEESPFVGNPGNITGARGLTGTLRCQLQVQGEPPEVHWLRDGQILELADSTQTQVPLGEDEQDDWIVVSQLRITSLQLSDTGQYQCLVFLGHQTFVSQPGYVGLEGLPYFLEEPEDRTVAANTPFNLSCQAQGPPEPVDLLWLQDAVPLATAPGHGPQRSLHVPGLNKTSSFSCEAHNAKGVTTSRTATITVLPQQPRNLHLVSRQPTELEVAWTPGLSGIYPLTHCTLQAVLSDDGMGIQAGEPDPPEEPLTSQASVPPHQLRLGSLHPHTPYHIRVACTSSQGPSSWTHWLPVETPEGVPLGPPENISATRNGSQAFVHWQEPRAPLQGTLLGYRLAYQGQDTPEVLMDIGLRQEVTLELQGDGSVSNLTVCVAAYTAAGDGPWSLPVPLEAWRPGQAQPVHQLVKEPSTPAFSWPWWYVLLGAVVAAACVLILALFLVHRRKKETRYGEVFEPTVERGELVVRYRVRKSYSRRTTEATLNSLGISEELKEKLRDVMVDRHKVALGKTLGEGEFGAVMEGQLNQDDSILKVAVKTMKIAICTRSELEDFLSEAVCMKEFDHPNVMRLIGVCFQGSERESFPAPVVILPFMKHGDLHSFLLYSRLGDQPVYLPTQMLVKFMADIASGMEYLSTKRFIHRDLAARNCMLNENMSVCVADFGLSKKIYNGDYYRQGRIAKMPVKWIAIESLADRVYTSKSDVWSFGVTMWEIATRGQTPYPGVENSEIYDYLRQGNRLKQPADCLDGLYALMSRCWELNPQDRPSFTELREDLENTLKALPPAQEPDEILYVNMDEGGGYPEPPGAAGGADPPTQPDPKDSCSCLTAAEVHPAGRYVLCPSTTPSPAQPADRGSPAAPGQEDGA

[2] = test system: mdx mouse gastrocnemius muscle; experiment: RNA-Seq analysis of gastrocnemius muscle; type: in vivo
Experimental: RNA-Seq was performed with isolated single nuclei using the 10X Genomics Chromium Single Cell 3’ Protocol, Accessories, and Kits (CG000183 Rev A). Data were then analyzed by Rosalind (https://rosalind.onramp.bio/), with a HyperScale architecture developed by OnRamp BioInformatics Inc. Data have been submitted to the Gene Expression Omnibus (GEO) database at the NIH (accession GSE227510).

FAK = target: T7, FAK (Homo sapiens, UniProt Q05397); experiment: KINOMEscan scanEDGE; type: binding; details: 20 uM
T7 construct: purchased Eurofins DiscoverX (KINOMEscan; SAFETYscan E/IC50 ELECT)
T7 sequence (Q05397 whole entry): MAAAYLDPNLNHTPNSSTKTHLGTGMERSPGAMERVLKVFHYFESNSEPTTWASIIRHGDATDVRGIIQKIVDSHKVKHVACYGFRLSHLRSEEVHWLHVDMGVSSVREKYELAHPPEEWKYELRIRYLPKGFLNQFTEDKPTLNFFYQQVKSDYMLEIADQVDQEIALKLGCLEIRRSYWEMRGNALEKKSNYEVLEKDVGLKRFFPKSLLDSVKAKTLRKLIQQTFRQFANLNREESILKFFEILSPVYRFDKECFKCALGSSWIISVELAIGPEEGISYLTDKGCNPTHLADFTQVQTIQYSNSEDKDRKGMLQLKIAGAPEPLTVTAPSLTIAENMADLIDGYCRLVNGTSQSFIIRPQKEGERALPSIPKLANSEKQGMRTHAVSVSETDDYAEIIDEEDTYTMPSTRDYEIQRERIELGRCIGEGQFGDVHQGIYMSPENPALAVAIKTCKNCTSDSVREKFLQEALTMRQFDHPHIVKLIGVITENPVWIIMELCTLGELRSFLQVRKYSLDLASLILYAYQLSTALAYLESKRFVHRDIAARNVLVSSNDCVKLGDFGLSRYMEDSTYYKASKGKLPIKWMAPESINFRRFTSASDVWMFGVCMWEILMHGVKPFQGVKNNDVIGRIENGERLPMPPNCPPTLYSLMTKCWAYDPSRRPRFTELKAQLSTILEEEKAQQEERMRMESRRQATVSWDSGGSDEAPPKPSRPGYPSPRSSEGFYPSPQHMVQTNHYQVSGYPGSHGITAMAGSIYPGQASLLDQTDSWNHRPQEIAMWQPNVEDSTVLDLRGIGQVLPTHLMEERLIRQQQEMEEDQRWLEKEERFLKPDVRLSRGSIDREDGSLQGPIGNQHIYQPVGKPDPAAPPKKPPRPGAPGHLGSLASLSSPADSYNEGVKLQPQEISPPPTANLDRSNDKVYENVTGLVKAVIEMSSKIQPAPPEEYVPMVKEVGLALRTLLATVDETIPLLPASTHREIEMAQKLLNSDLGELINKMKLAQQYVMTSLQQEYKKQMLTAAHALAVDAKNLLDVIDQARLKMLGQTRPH

AURKA = target: T8, AURKA (Homo sapiens, UniProt O14965); experiment: KINOMEscan scanEDGE; type: binding; details: 20 uM
T8 construct: purchased Eurofins DiscoverX (KINOMEscan; SAFETYscan E/IC50 ELECT)

CHEK1 = target: T9, CHEK1 (Homo sapiens, UniProt O14757); experiment: KINOMEscan scanEDGE; type: binding; details: 20 uM
T9 construct: purchased Eurofins DiscoverX (KINOMEscan; SAFETYscan E/IC50 ELECT)
T9 sequence (O14757 whole entry): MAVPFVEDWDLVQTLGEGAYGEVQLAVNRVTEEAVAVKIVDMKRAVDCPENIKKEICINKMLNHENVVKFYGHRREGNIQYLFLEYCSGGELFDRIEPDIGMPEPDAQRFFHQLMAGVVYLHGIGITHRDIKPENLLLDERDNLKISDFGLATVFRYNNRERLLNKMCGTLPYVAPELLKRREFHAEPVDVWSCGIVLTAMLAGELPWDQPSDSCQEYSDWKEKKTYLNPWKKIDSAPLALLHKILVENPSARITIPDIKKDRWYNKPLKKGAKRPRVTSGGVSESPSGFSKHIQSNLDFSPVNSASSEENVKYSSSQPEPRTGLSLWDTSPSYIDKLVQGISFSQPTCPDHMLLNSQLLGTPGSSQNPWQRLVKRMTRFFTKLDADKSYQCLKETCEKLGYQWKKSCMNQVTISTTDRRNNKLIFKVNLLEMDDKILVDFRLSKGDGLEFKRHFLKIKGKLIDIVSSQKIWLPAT

[3] = target: T10, ABL1(T315I)-phosphorylated (Homo sapiens, UniProt P00519, T315I); experiment: KINOMEscan scanEDGE; type: binding; details: 20 uM
T10 construct: purchased Eurofins DiscoverX (KINOMEscan; SAFETYscan E/IC50 ELECT)

[4] = mdx EDG-5506 3 mg/kg vs mdx Control

## O=c1ccc(-c2cnc(OCC(F)(F)F)nc2)nn1Cc1cncc(F)c1 [EDG-5506]
[1]
  decrease in CK: more than 50%
90 kinase proteins
  binding affinity with kinase panel: did not exhibit any binding affinity
WT or mdx mice
  grip strength: no effect
ADCK3
  binding, % of control: 93 % of control
CDK3
  binding, % of control: 100 % of control
MAP3K4
  binding, % of control: 90 % of control
PIM2
  binding, % of control: 100 % of control
EGFR
  binding, % of control: 100 % of control
AXL
  binding, % of control: 92 % of control
[2]; mdx EDG-5506 3 mg/kg vs WT
  log2FoldChange Chrng: 0.42
  log2FoldChange Igfn1: 2.931
  log2FoldChange Katnal2: 1.899
  log2FoldChange Myh8: 0.5674
  log2FoldChange Myl4: 1.684
[2]; [4]
  log2FoldChange Chrng: -0.2866
  log2FoldChange Igfn1: -0.9018
  log2FoldChange Katnal2: -0.9377
  log2FoldChange Myh8: -0.538
  log2FoldChange Myl4: -1.31
[2]; mdx mice, 8 weeks
  skeletal muscle transcription profile: returned the skeletal muscle transcription profile closer to that of WT mice
FAK
  binding, % of control: 100 % of control
AURKA
  binding, % of control: 99 % of control
CHEK1
  binding, % of control: 100 % of control
[3]
  binding, % of control: 94 % of control
